Patent US7396837B2, “Antitumoral analogs of lamellarins” (Pharma Mar, S.A.U., priority 2002, dated 2008)

Columns and labels:
Assay type in all cases: cell-based
K-562 = experiment: SRB colorimetric cell growth inhibition assay, K-562; conditions: Homo sapiens, K562, K-562; for GI50: GI=growth inhibition, read-out: GI50 K-562; for CC50: cell killing (cytotoxic effect), read-out: LC50 K-562; for IC (TGI): total growth inhibition (cytostatic effect), read-out: TGI K-562
Text: (§1) The finality of these assays is to interrupt the growth of an “in vitro” tumor cell culture by means a continued exhibition of the cells to the sample to be testing.
(§2) A colorimetric type of assay, using sulforhodamine B (SRB) reaction has been adapted for a quantitative measurement of cell growth and viability (following the technique described by P. A. Skehan, et al., J. Natl. Cancer Inst. 1990, 82, 1107-1112).
(§3) This form of assay employs 96 well cell culture microplates of 9 mm diameter (T. Mosmann et al., J. of Immunological Methods 1983, 65, 55-63; G. T. Faircloth et al., J. of Tissue and Culture Methods 1988, 11, 201-205).
(§4) Most of the cell lines are obtained from American Type Culture Collection (ATCC) derived from different human cancer types.
(§5) The values for mean +/− SD of data from triplicate wells are calculated. Some parameters for cellular responses can be calculated: GI=growth inhibition, TGI=total growth inhibition (cytostatic effect) and LC=cell killing (cytotoxic effect).

PANC-1 = experiment: SRB colorimetric cell growth inhibition assay, PANC-1; conditions: Homo sapiens, PANC-1, PANC-1; for GI50: GI=growth inhibition, read-out: GI50 PANC-1; for CC50: cell killing (cytotoxic effect), read-out: LC50 PANC-1; for IC (TGI): total growth inhibition (cytostatic effect), read-out: TGI PANC-1
Text: as §1, §2, §3, §4, §5

LoVo-Dox = experiment: SRB colorimetric cell growth inhibition assay, LoVo-Dox (MDR); conditions: Homo sapiens, LOVO-DOX; for GI50: GI=growth inhibition, read-out: GI50 LOVO-DOX; for CC50: cell killing (cytotoxic effect), read-out: LC50 LOVO-DOX; for IC (TGI): total growth inhibition (cytostatic effect), read-out: TGI LOVO-DOX
Text: as §1, §2, §3, §4, §5

IGROV-ET = experiment: SRB colorimetric cell growth inhibition assay, IGROV-ET (ET-743 resistant); conditions: Homo sapiens, IGROV-ET; for GI50: GI=growth inhibition, read-out: GI50 IGROV-ET; for CC50: cell killing (cytotoxic effect), read-out: LC50 IGROV-ET; for IC (TGI): total growth inhibition (cytostatic effect), read-out: TGI IGROV-ET
Text: as §1, §2, §3, §4, §5

LNCaP = experiment: SRB colorimetric cell growth inhibition assay, LNCaP; conditions: Homo sapiens, LNCaP, LN-caP; for GI50: GI=growth inhibition, read-out: GI50 LN-caP; for CC50: cell killing (cytotoxic effect), read-out: LC50 LN-caP; for IC (TGI): total growth inhibition (cytostatic effect), read-out: TGI LN-caP
Text: as §1, §2, §3, §4, §5

IGROV = experiment: SRB colorimetric cell growth inhibition assay, IGROV; conditions: Homo sapiens, IGROV; for GI50: GI=growth inhibition, read-out: GI50 IGROV; for CC50: cell killing (cytotoxic effect), read-out: LC50 IGROV; for IC (TGI): total growth inhibition (cytostatic effect), read-out: TGI IGROV
Text: as §1, §2, §3, §4, §5

HeLa = experiment: SRB colorimetric cell growth inhibition assay, HeLa; conditions: Homo sapiens, HeLa; for GI50: GI=growth inhibition, read-out: GI50 HELA; for CC50: cell killing (cytotoxic effect), read-out: LC50 HELA; for IC (TGI): total growth inhibition (cytostatic effect), read-out: TGI HELA
Text: as §1, §2, §3, §4, §5

DU-145 = experiment: SRB colorimetric cell growth inhibition assay, DU-145; conditions: Homo sapiens, DU-145, DU-145; for GI50: GI=growth inhibition, read-out: GI50 DU-145; for CC50: cell killing (cytotoxic effect), read-out: LC50 DU-145; for IC (TGI): total growth inhibition (cytostatic effect), read-out: TGI DU-145
Text: as §1, §2, §3, §4, §5

LoVo = experiment: SRB colorimetric cell growth inhibition assay, LoVo; conditions: Homo sapiens, LoVo; for GI50: GI=growth inhibition, read-out: GI50 LOVO; for CC50: cell killing (cytotoxic effect), read-out: LC50 LOVO; for IC (TGI): total growth inhibition (cytostatic effect), read-out: TGI LOVO
Text: as §1, §2, §3, §4, §5

SK-BR-3 = experiment: SRB colorimetric cell growth inhibition assay, SK-BR-3; conditions: Homo sapiens, SK-BR-3, SK-BR-3; for GI50: GI=growth inhibition, read-out: GI50 SK-BR-3; for CC50: cell killing (cytotoxic effect), read-out: LC50 SK-BR-3; for IC (TGI): total growth inhibition (cytostatic effect), read-out: TGI SK-BR-3
Text: as §1, §2, §3, §4, §5

HeLa-APL = experiment: SRB colorimetric cell growth inhibition assay, HeLa-APL (aplidine resistant); conditions: Homo sapiens, HELA-APL; for GI50: GI=growth inhibition, read-out: GI50 HELA-APL; for CC50: cell killing (cytotoxic effect), read-out: LC50 HELA-APL; for IC (TGI): total growth inhibition (cytostatic effect), read-out: TGI HELA-APL
Text: as §1, §2, §3, §4, §5

A-549 = experiment: SRB colorimetric cell growth inhibition assay, A-549; conditions: Homo sapiens, A549, A-549; for GI50: GI=growth inhibition, read-out: GI50 A-549; for CC50: cell killing (cytotoxic effect), read-out: LC50 A-549; for IC (TGI): total growth inhibition (cytostatic effect), read-out: TGI A-549
Text: as §1, §2, §3, §4, §5

HT-29 = experiment: SRB colorimetric cell growth inhibition assay, HT-29; conditions: Homo sapiens, HT-29, HT-29; for GI50: GI=growth inhibition, read-out: GI50 HT-29; for CC50: cell killing (cytotoxic effect), read-out: LC50 HT-29; for IC (TGI): total growth inhibition (cytostatic effect), read-out: TGI HT-29
Text: as §1, §2, §3, §4, §5

SK-MEL-28 = experiment: SRB colorimetric cell growth inhibition assay, SK-MEL-28; conditions: Homo sapiens, SK-MEL-28, MEL-28
Text: as §1, §2, §3, §4, §5

Compound: COc1cc(-c2c3n(c4c(=O)[nH]c5cc(O)c(OC)cc5c24)CCc2cc(O)c(OC)cc2-3)ccc1O [Compound 4]
- GI50 (K-562): 0.396 µM
- CC50 (K-562): 4.44 µM
- IC (TGI) (K-562): 0.937 µM
- GI50 (PANC-1): 0.48 µM
- CC50 (PANC-1): 5.99 µM
- IC (TGI) (PANC-1): 1.34 µM
- GI50 (LoVo-Dox): 2 µM
- CC50 (LoVo-Dox): 17.8 µM
- IC (TGI) (LoVo-Dox): 5.95 µM
- GI50 (IGROV-ET): 0.599 µM
- CC50 (IGROV-ET): 13.1 µM
- IC (TGI) (IGROV-ET): 1.64 µM
- GI50 (LNCaP): 0.332 µM
- CC50 (LNCaP): 1.85 µM
- IC (TGI) (LNCaP): 0.785 µM
- GI50 (IGROV): 0.402 µM
- CC50 (IGROV): 11.3 µM
- IC (TGI) (IGROV): 2 µM
- GI50 (HeLa): 0.338 µM
- CC50 (HeLa): 1.39 µM
- IC (TGI) (HeLa): 0.685 µM
- GI50 (DU-145): 0.218 µM
- CC50 (DU-145): 2.14 µM
- IC (TGI) (DU-145): 0.667 µM
- GI50 (LoVo): 0.468 µM
- CC50 (LoVo): 4.36 µM
- IC (TGI) (LoVo): 1.08 µM
- GI50 (SK-BR-3): 0.338 µM
- CC50 (SK-BR-3): 1.47 µM
- IC (TGI) (SK-BR-3): 0.703 µM
- GI50 (HeLa-APL): 0.238 µM
- CC50 (HeLa-APL): 1.95 µM
- IC (TGI) (HeLa-APL): 0.681 µM
- GI50 (A-549): 0.543 µM
- CC50 (A-549): 10 µM
- IC (TGI) (A-549): 1.21 µM
- GI50 (HT-29): 2.5 µM
- CC50 (HT-29): 14.6 µM
- IC (TGI) (HT-29): 6.03 µM

Compound: COc1cc(-c2c3c4cc(OC)c(OC(=O)[C@H](C)NC(=O)[C@H](C)N)cc4oc(=O)c3n3ccc4c(OC(=O)[C@H](C)NC(=O)[C@H](C)N)c(OC)c(OC)cc4c23)ccc1OC(=O)[C@H](C)NC(=O)[C@H](C)N [Compound 5]
- GI50 (K-562): 0.077 µM
- CC50 (K-562): 7.4 µM
- IC (TGI) (K-562): 1.1 µM
- GI50 (SK-MEL-28; GI=growth inhibition, read-out: GI50 MEL-28): 0.0629 µM
- CC50 (SK-MEL-28; cell killing (cytotoxic effect), read-out: LC50 MEL-28): 1.12 µM
- IC (TGI) (SK-MEL-28; total growth inhibition (cytostatic effect), read-out: TGI MEL-28): 0.249 µM
- GI50 (PANC-1): 0.418 µM
- CC50 (PANC-1): 4.51 µM
- IC (TGI) (PANC-1): 1.64 µM
- GI50 (LoVo-Dox): 0.409 µM
- CC50 (LoVo-Dox): 3.4 µM
- IC (TGI) (LoVo-Dox): 1.1 µM
- GI50 (IGROV-ET): 0.212 µM
- CC50 (IGROV-ET): 6.09 µM
- IC (TGI) (IGROV-ET): 1.06 µM
- GI50 (LNCaP): 0.223 µM
- CC50 (LNCaP): 3.62 µM
- IC (TGI) (LNCaP): 1.05 µM
- GI50 (IGROV): 0.247 µM
- CC50 (IGROV): 4.54 µM
- IC (TGI) (IGROV): 0.855 µM
- GI50 (HeLa): 0.124 µM
- CC50 (HeLa): 3.1 µM
- IC (TGI) (HeLa): 1.12 µM
- GI50 (DU-145): 0.0356 µM
- CC50 (DU-145): 0.575 µM
- IC (TGI) (DU-145): 0.119 µM
- GI50 (LoVo): 0.345 µM
- CC50 (LoVo): 4.14 µM
- IC (TGI) (LoVo): 1.06 µM
- GI50 (SK-BR-3): 0.241 µM
- CC50 (SK-BR-3): 3.54 µM
- IC (TGI) (SK-BR-3): 0.595 µM
- GI50 (HeLa-APL): 0.31 µM
- CC50 (HeLa-APL): 5.55 µM
- IC (TGI) (HeLa-APL): 1.71 µM
- GI50 (A-549): 0.121 µM
- CC50 (A-549): 4.65 µM
- IC (TGI) (A-549): 1.02 µM
- GI50 (HT-29): 1.7 µM
- CC50 (HT-29): 6.16 µM
- IC (TGI) (HT-29): 3.24 µM
